Results reported in patent US9656984B2, “PI3K/AKT/mTOR inhibitors and pharmaceutical uses thereof” (UNIVERSITE DE RENNES 1, priority 2013, dated 2017).

Experiments:
[1] = system: T47-D (ER-positive) breast tumor cell line; assay: Cell death by MTT assay, T47-D; assay type: cell-based, human; settings: 24 hours, mean of four experiments
Procedure: (§1) The ER-positive breast tumor cell lines MCF-7 and T47-D and the HER2 positive breast tumor cell lines MDA-MB-453 and BT474 (also ER-positive) were incubated with the indicated concentration of each mentioned compound of formula (I) for 24 hours and then cell death was assessed using MTT assay.
(§2) For each cell line, the percentage of cell death (mean of four experiments for cell lines MCF-7 and T47-D, and two experiments for cell lines MDA-MB-453 and BT474) is given in view of the increasing concentration of each tested compound of the invention.
(§3) Cell viability was assessed using the 3-[4,5-dimethylthiazol-2-yl]-2,5-diphenyltetrazolium bromide (MTT) viability assay (1). In brief, cells (4×10^4 per well) were cultured for 20 h in flat-bottomed 96 well plates with various concentrations of the apoptosis inducer. Then 0.015 ml of MTT (5 mg/ml in PBS) was added to each well and incubated for 4 h at 37° C. Formazan salt precipitats were dissolved by adding 0.115 ml of isopropyl alcohol containing 1% formic acid (v/v), and the absorbance was measured at 570 nm.

[2] = system: BT474 (ER-positive/HER2-positive) breast tumor cell line; assay: Cell death by MTT assay, BT474; assay type: cell-based, human; settings: 24 hours, mean of two experiments
Procedure: as §1, §2, §3

[3] = system: MDA-MB-453 (HER2 positive) breast tumor cell line; assay: Cell death by MTT assay, MDA-MB-453; assay type: cell-based, human; settings: 24 hours, mean of two experiments
Procedure: as §1, §2, §3

[4] = system: MCF-7 (ER-positive) breast tumor cell line; assay: Cell death by MTT assay, MCF-7; assay type: cell-based, human; settings: 24 hours, mean of four experiments
Procedure: as §1, §2, §3

[5] = system: AKT phosphorylation; assay: In cellulo IC50 of AKT phosphorylation in CEM cells (Western blot densitometry); assay type: cell-based; settings: Homo sapiens, CCRF-CEM, 2 hours incubation, AKT phosphorylation vs whole AKT, read-out: In vivo IC50
Procedure: CEM cells were incubated for 2 hours with the indicated concentrations of each mentioned compound of formula (I). Cells were then lysed and 100 μg of protein was loaded per line in an SDS-PAGE. Bands from AKT phosphorylation and whole AKT observed by Western blot were scanned and quantified by densitometric analysis. Based on these values, an in cellulo IC50 (half maximal inhibitory concentration) was measured for each compound of formula (I).
(§4) Immunoblots Excepted for immunoprecipitation experiments in which cells were lyzed with RIPA buffer, cells were lyzed for 30 min at 4° C. in Lysis buffer (25 mM HEPES pH 7.4, 1% v/v Triton X-100, 150 mM NaCl, 2 mM EGTA supplemented with a mix of protease inhibitors). Protein concentration was determined by the bicinchoninic acid method (Pierce, Rockford, Ill., USA) according to the manufacturer's protocol. Proteins were resolved by 8, 10 or 12% SDS-PAGE and transferred to a nitrocellulose membrane (GE Healthcare, Buckinghamshire, UK). The membrane was blocked 15 min with TBST (50 mM Tris, 160 mM NaCl, 0.05% v/v Tween 20, pH 7.4) containing 5% w/v dried skimmed milk (TBS™). Primary antibody was incubated overnight at 4° C. in TBS™. The membrane was intensively washed (TBST) and then the peroxydase-labeled anti-mouse IgG1 or IgG2a (CliniSciences, Nanterre, France) was added for 45 min. Proteins were visualized with the enhanced chemiluminescence substrate kit (ECL RevelBIOt®, Ozyme, Saint Quentin en Yvelines, France).

[6] = system: PI3K/AKT activity (AKT phosphorylation); assay: PI3K/AKT/mTOR pathway inhibitory activity: level of AKT phosphorylation in CEM cells over time; assay type: cell-based, human; settings: 10 μM, FIGS. 7 and 8
Procedure: The CEM cell was incubated with 10 μM of each mentioned compound of formula (I) for the indicated times and then cells were lysed and 100 μg of protein was loaded per line and resolved by SDS-PAGE. The levels of AKT phosphorylation (hallmark of PI3K activation) and total AKT (loading control) were analyzed by Western blot and the amount of AKT phosphorylation relative to the total amount of protein AKT was quantified by densitometric analysis, the intensity of each band was scanned and the level of AKT phosphorylation was reported to the amount of whole AKT and the percentage of phosphorylated-AKT was depicted.
as §4

SMILES: O=[N+]([O-])C1Cc2cc(Br)ccc2OC1c1ccc(F)cc1 (stereo not shown) [Compound 7, 6-bromo-2-(4-fluorophenyl)-3-nitro-3,4-dihydro-2H-chromene]
- percentage of cell death ([1]; 6.25 μM): 34.43%
- percentage of cell death ([1]; 12.5 μM): 85.1%
- percentage of cell death ([1]; 25 μM): 92.07%
- percentage of cell death ([1]; 50 μM): 88.3%
- percentage of cell death ([2]; BT474, 6.25 μM): 44.85%
- percentage of cell death ([2]; BT474, 12.5 μM): 55.3%
- percentage of cell death ([2]; BT474, 25 μM): 91.87%
- percentage of cell death ([2]; BT474, 50 μM): 96.07%
- percentage of cell death ([3]; MDA-MB-453, 0.390625 μM): 1.13%
- percentage of cell death ([3]; MDA-MB-453, 0.78125 μM): 0%
- percentage of cell death ([3]; MDA-MB-453, 1.5625 μM): 13.84%
- percentage of cell death ([3]; MDA-MB-453, 3.125 μM): 52.93%
- percentage of cell death ([3]; MDA-MB-453, 6.25 μM): 65.61%
- percentage of cell death ([3]; MDA-MB-453, 12.5 μM): 97.05%
- percentage of cell death ([3]; MDA-MB-453, 25 μM): 102.46%
- percentage of cell death ([3]; MDA-MB-453, 50 μM): 100.25%
- percentage of cell death ([4]; MCF-7, 6.25 μM): 10.88%
- percentage of cell death ([4]; MCF-7, 12.5 μM): 38.7%
- percentage of cell death ([4]; MCF-7, 25 μM): 79.7%
- percentage of cell death ([4]; MCF-7, 50 μM): 95.55%

SMILES: O=[N+]([O-])C1=Cc2cc(Br)ccc2OC1c1ccc(Br)cc1 (stereo not shown) [Compound 9, 6-bromo-2-(4-bromo-phenyl)-3-nitro-2H-chromene]
- percentage of cell death ([1]; 6.25 μM): 20.53%
- percentage of cell death ([1]; 12.5 μM): 92.97%
- percentage of cell death ([1]; 25 μM): 91.2%
- percentage of cell death ([1]; 50 μM): 93.62%
- percentage of cell death ([2]; BT474, 6.25 μM): 25.95%
- percentage of cell death ([2]; BT474, 12.5 μM): 71.4%
- percentage of cell death ([2]; BT474, 25 μM): 88.01%
- percentage of cell death ([2]; BT474, 50 μM): 93.62%
- percentage of cell death ([3]; MDA-MB-453, 0.390625 μM): 1.52%
- percentage of cell death ([3]; MDA-MB-453, 0.78125 μM): 7.56%
- percentage of cell death ([3]; MDA-MB-453, 1.5625 μM): 4.67%
- percentage of cell death ([3]; MDA-MB-453, 3.125 μM): 53.8%
- percentage of cell death ([3]; MDA-MB-453, 6.25 μM): 71.22%
- percentage of cell death ([3]; MDA-MB-453, 12.5 μM): 87.47%
- percentage of cell death ([3]; MDA-MB-453, 25 μM): 97.49%
- percentage of cell death ([3]; MDA-MB-453, 50 μM): 98.67%
- IC50 [5]: 400 nM
- percentage of cell death ([4]; MCF-7, 6.25 μM): 0%
- percentage of cell death ([4]; MCF-7, 12.5 μM): 32.14%
- percentage of cell death ([4]; MCF-7, 25 μM): 52.18%
- percentage of cell death ([4]; MCF-7, 50 μM): 80.16%
- inhibitory activity on PI3K/AKT (level of AKT phosphorylation) [6]: very strong inhibitors

SMILES: O=[N+]([O-])C1=Cc2cc(Br)ccc2OC1c1ccc(Cl)cc1 (stereo not shown) [Compound 10, 6-bromo-2-(4-chloro-phenyl)-3-nitro-2H-chromene]
- percentage of cell death ([1]; 6.25 μM): 4.62%
- percentage of cell death ([1]; 12.5 μM): 87.84%
- percentage of cell death ([1]; 25 μM): 91.71%
- percentage of cell death ([1]; 50 μM): 92.93%
- percentage of cell death ([2]; BT474, 6.25 μM): 0%
- percentage of cell death ([2]; BT474, 12.5 μM): 40.42%
- percentage of cell death ([2]; BT474, 25 μM): 69.52%
- percentage of cell death ([2]; BT474, 50 μM): 93.84%
- percentage of cell death ([3]; MDA-MB-453, 0.390625 μM): 6.6%
- percentage of cell death ([3]; MDA-MB-453, 0.78125 μM): 7.8%
- percentage of cell death ([3]; MDA-MB-453, 1.5625 μM): 5.06%
- percentage of cell death ([3]; MDA-MB-453, 3.125 μM): 70.42%
- percentage of cell death ([3]; MDA-MB-453, 6.25 μM): 76.17%
- percentage of cell death ([3]; MDA-MB-453, 12.5 μM): 93.07%
- percentage of cell death ([3]; MDA-MB-453, 25 μM): 98.46%
- percentage of cell death ([3]; MDA-MB-453, 50 μM): 99.07%
- IC50 [5]: 2000 nM
- percentage of cell death ([4]; MCF-7, 6.25 μM): 0%
- percentage of cell death ([4]; MCF-7, 12.5 μM): 24.06%
- percentage of cell death ([4]; MCF-7, 25 μM): 49.08%
- percentage of cell death ([4]; MCF-7, 50 μM): 81.85%
- inhibitory activity on PI3K/AKT (level of AKT phosphorylation) [6]: very strong inhibitors

SMILES: CCOc1cccc2c1OC(c1ccc(Br)cc1)C([N+](=O)[O-])=C2 (stereo not shown) [Compound 13, 2-(4-bromo-phenyl)-8-ethoxy-3-nitro-2H-chromene]
- IC50 [5]: 8000 nM
- inhibitory activity on PI3K/AKT (level of AKT phosphorylation) [6]: very strong inhibitors

SMILES: CCOc1cccc2c1OC(c1ccc(Cl)cc1)C([N+](=O)[O-])=C2 (stereo not shown) [Compound 14, 2-(4-chloro-phenyl)-8-ethoxy-3-nitro-2H-chromene]
- IC50 [5]: 10000 nM
- inhibitory activity on PI3K/AKT (level of AKT phosphorylation) [6]: very strong inhibitors

SMILES: O=[N+]([O-])C1=Cc2cccc(Br)c2OC1c1ccc(Br)cc1 (stereo not shown) [Compound 18, 8-bromo-2-(4-bromo-phenyl)-3-nitro-2H-chromene]
- percentage of cell death ([1]; 6.25 μM): 0%
- percentage of cell death ([1]; 12.5 μM): 0%
- percentage of cell death ([1]; 25 μM): 23.71%
- percentage of cell death ([1]; 50 μM): 78.28%
- percentage of cell death ([3]; MDA-MB-453, 0.390625 μM): 3.17%
- percentage of cell death ([3]; MDA-MB-453, 0.78125 μM): 3.17%
- percentage of cell death ([3]; MDA-MB-453, 1.5625 μM): 0%
- percentage of cell death ([3]; MDA-MB-453, 3.125 μM): 0%
- percentage of cell death ([3]; MDA-MB-453, 6.25 μM): 45.963%
- percentage of cell death ([3]; MDA-MB-453, 12.5 μM): 81.73%
- percentage of cell death ([3]; MDA-MB-453, 25 μM): 93.72%
- percentage of cell death ([3]; MDA-MB-453, 50 μM): 100%
- IC50 [5]: 1500 nM
- inhibitory activity on PI3K/AKT (level of AKT phosphorylation) [6]: very strong inhibitors

SMILES: O=[N+]([O-])C1=Cc2cccc(Br)c2OC1c1ccc(Cl)cc1 (stereo not shown) [Compound 19, 8-bromo-2-(4-chloro-phenyl)-3-nitro-2H-chromene]
- percentage of cell death ([3]; MDA-MB-453, 0.390625 μM): 0%
- percentage of cell death ([3]; MDA-MB-453, 0.78125 μM): 0%
- percentage of cell death ([3]; MDA-MB-453, 1.5625 μM): 0%
- percentage of cell death ([3]; MDA-MB-453, 3.125 μM): 24.69%
- percentage of cell death ([3]; MDA-MB-453, 6.25 μM): 53.93%
- percentage of cell death ([3]; MDA-MB-453, 12.5 μM): 91.89%
- percentage of cell death ([3]; MDA-MB-453, 25 μM): 98.05%
- percentage of cell death ([3]; MDA-MB-453, 50 μM): 101.13%
- IC50 [5]: > 10000 nM
- percentage of cell death ([4]; MCF-7, 6.25 μM): 0%
- percentage of cell death ([4]; MCF-7, 12.5 μM): 25.75%
- percentage of cell death ([4]; MCF-7, 25 μM): 52.14%
- percentage of cell death ([4]; MCF-7, 50 μM): 84.65%
- inhibitory activity on PI3K/AKT (level of AKT phosphorylation) [6]: very strong inhibitors

SMILES: O=CC1=Cc2cc(Br)ccc2OC1c1ccc(Br)cc1 (stereo not shown) [Compound 44, 6-Bromo-2-(4-bromophenyl)-2H-chromene-3-carbaldehyde]
- melting point: 144 to 146 °C

SMILES: O=C(O)C1=Cc2cc(Br)ccc2OC1c1ccc(Br)cc1 (stereo not shown) [Compound 53, 6-bromo-2-(4-bromophenyl)-2H-chromene-3-carboxylic acid]
- melting point: 208 to 210 °C

SMILES: O=C(O)C1=Cc2cc(Br)cc(Br)c2OC1c1ccc(Br)cc1 (stereo not shown) [Compound 54, 6,8-dibromo-2(4-bromophenyl)-2H-chromene-3-carboxylic acid]
- melting point: 256 to 258 °C

SMILES: COC(=O)C1=Cc2cc(Br)ccc2OC1c1ccc(Br)cc1 (stereo not shown) [Compound 55, Methyl-6-Bromo-2-(4-bromophenyl)-2H-chromene-3-carboxylate]
- melting point: 118 to 120 °C

SMILES: ON=CC1=Cc2cc(Br)ccc2OC1c1ccc(Br)cc1 (stereo not shown) [Compound 59, 6-Bromo-2-(4-bromophenyl)-2H-chromene-3-carbaldehyde oxime]
- melting point: 158 to 160 °C

SMILES: N#CC1=Cc2cc(Br)ccc2OC1c1ccc(Br)cc1 (stereo not shown) [Compound 61, 6-Bromo-2-(4-bromophenyl)-2H-chromene-3-carbonitrile]
- melting point: 136 to 138 °C

SMILES: N#CC1=Cc2cc(Br)cc(Br)c2OC1c1ccc(Br)cc1 (stereo not shown) [Compound 62, 6,8-Dibromo-2-(4-bromophenyl)-2H-chromene-3-carbonitrile]
- melting point: 196 to 198 °C
